# Reference: patent publication US12077503B2, “Substituted cyclic amides and their use as herbicides” (FMC CORPORATION, priority 2015, dated 2024)
# Where two headings read alike, the source gives them in different places.
# How the values were obtained:
# Assay type in all cases: in vivo
# rice (Oryra sativa) = assay: Test B flooded paddy test; conditions: Oryza sativa, 250 g ai/ha, Flood; 0 to 100 scale where 0 is no effect and 100 is complete control; read-out: Rice plant response rating
# Outline: (§1)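 Flooding to 3 cm over soil accompanied treatment, which consisted of adding compound to the standing water around 2-leaf plants; depth was then maintained. Visual assessment versus controls followed at 13 to 15 d (scale 0–100, 0 meaning no effect).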
# [1] = tested on: ducksalad (Heteranthera limosa); assay: Test B flooded paddy test; conditions: Heteranthera limosa, 250 g ai/ha, Flood; 0 to 100 scale where 0 is no effect and 100 is complete control; read-out: Ducksalad plant response rating
# Outline: as §1
# [2] = tested on: sedge, umbrella (small-flower umbrella sedge, Cyperus difformis); assay: Test B flooded paddy test; conditions: Cyperus difformis, 250 g ai/ha, Flood; 0 to 100 scale where 0 is no effect and 100 is complete control; read-out: Sedge, Umbrella plant response rating
# Outline: as §1
# [3] = tested on: barnyardgrass (Echinochloa crus-galli); assay: Test B flooded paddy test; conditions: Echinochloa crus-galli, 250 g ai/ha, Flood; 0 to 100 scale where 0 is no effect and 100 is complete control; read-out: Barnyardgrass plant response rating
# Outline: as §1
# [4] = tested on: ryegrass, Italian (Italian ryegrass, Lolium multiflorum); assay: Test A preemergence; conditions: Lolium multiflorum, pre-emergence, 240 h; for pest or weed control at 125 g/ha: 125 g ai/ha; for pest or weed control at 500 g/ha: 500 g ai/ha, visual injury rating about 10 d after treatment, 0 to 100 scale (0 no effect, 100 complete control)
# Outline: (§2)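 In a loam soil and sand blend, planted seeds got a preemergence directed soil spray, and young plants at the one- to two-leaf stage, 2–10 cm high, got a postemergence application; ~10 d greenhouse hold; injury rated visually, 0 = none, 100 = complete control.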
# [5] = tested on: pigweed (Amaranthus retroflexus); assay: Test A preemergence; conditions: Amaranthus retroflexus, pre-emergence, 240 h; for pest or weed control at 125 g/ha: 125 g ai/ha; for pest or weed control at 500 g/ha: 500 g ai/ha, visual injury rating about 10 d after treatment, 0 to 100 scale (0 no effect, 100 complete control)
# [6] = tested on: ragweed (common ragweed, Ambrosia elatior); assay: Test A preemergence; conditions: Ambrosia artemisiifolia, pre-emergence, 240 h; for pest or weed control at 125 g/ha: 125 g ai/ha; for pest or weed control at 500 g/ha: 500 g ai/ha, visual injury rating about 10 d after treatment, 0 to 100 scale (0 no effect, 100 complete control)
# Outline: as §2
# Kochia (Kochia scoparia) [7] = assay: Test A preemergence; conditions: Bassia scoparia, pre-emergence, 240 h; for pest or weed control at 125 g/ha: 125 g ai/ha; for pest or weed control at 500 g/ha: 500 g ai/ha, visual injury rating about 10 d after treatment, 0 to 100 scale (0 no effect, 100 complete control)
# Outline: as §2
# [8] = tested on: barnyardgrass (Echinochloa crus-galli); assay: Test A preemergence; conditions: Echinochloa crus-galli, pre-emergence, 240 h; for pest or weed control at 125 g/ha: 125 g ai/ha; for pest or weed control at 500 g/ha: 500 g ai/ha, visual injury rating about 10 d after treatment, 0 to 100 scale (0 no effect, 100 complete control)
# Outline: as §2
# [9] = tested on: giant foxtail (Setaria faberii); assay: Test A preemergence; conditions: Setaria faberi, pre-emergence, 240 h; for pest or weed control at 125 g/ha: 125 g ai/ha; for pest or weed control at 500 g/ha: 500 g ai/ha, visual injury rating about 10 d after treatment, 0 to 100 scale (0 no effect, 100 complete control)
# Outline: as §2
# [10] = tested on: ragweed (common ragweed, Ambrosia elatior); assay: Test A postemergence; conditions: Ambrosia artemisiifolia, post-emergence, 240 h, postemergence, read-out: Ragweed plant response rating; for pest or weed control at 125 g/ha: 125 g ai/ha, visual injury on 0 to 100 scale (0 no effect, 100 complete control), approx. 10 d; for pest or weed control at 500 g/ha: 500 g ai/ha, 0 to 100 scale, 0 is no effect, 100 is complete control
# Outline: as §2
# Kochia (Kochia scoparia) [11] = assay: Test A postemergence; conditions: Bassia scoparia, post-emergence, 240 h, postemergence; for pest or weed control at 125 g/ha: 125 g ai/ha, visual injury on 0 to 100 scale (0 no effect, 100 complete control); for pest or weed control at 500 g/ha: 500 g ai/ha
# Outline: as §2
# [12] = tested on: barnyardgrass (Echinochloa crus-galli); assay: Test A postemergence; conditions: Echinochloa crus-galli, post-emergence, 240 h, postemergence; for pest or weed control at 125 g/ha: 125 g ai/ha, visual injury on 0 to 100 scale (0 no effect, 100 complete control); for pest or weed control at 500 g/ha: 500 g ai/ha
# Outline: as §2
# [13] = tested on: giant foxtail (Setaria faberii); assay: Test A postemergence; conditions: Setaria faberi, post-emergence, 240 h, postemergence; for pest or weed control at 125 g/ha: 125 g ai/ha, visual injury on 0 to 100 scale (0 no effect, 100 complete control); for pest or weed control at 500 g/ha: 500 g ai/ha
# Outline: as §2
# [14] = preemergence, read-out: Ryegrass, Italian plant response rating
# [15] = preemergence, read-out: Pigweed plant response rating
# [16] = preemergence, read-out: Ragweed plant response rating
# [17] = preemergence, read-out: Kochia plant response rating
# [18] = preemergence, read-out: Barnyardgrass plant response rating
# [19] = preemergence, read-out: Foxtail, Giant plant response rating
# [20] = approx. 10 d, read-out: Kochia plant response rating
# [21] = approx. 10 d, read-out: Barnyardgrass plant response rating
# [22] = approx. 10 d, read-out: Foxtail, Giant plant response rating
# [23] = preemergence, 0 to 100 scale where 0 is no effect and 100 is complete control, approx. 10 d, read-out: Ryegrass, Italian plant response rating
# [24] = preemergence, 0 to 100 scale where 0 is no effect and 100 is complete control, approx. 10 d, read-out: Pigweed plant response rating
# [25] = preemergence, 0 to 100 scale where 0 is no effect and 100 is complete control, approx. 10 d, read-out: Ragweed plant response rating
# [26] = preemergence, 0 to 100 scale where 0 is no effect and 100 is complete control, approx. 10 d, read-out: Kochia plant response rating
# [27] = preemergence, 0 to 100 scale where 0 is no effect and 100 is complete control, approx. 10 d, read-out: Barnyardgrass plant response rating
# [28] = preemergence, 0 to 100 scale where 0 is no effect and 100 is complete control, approx. 10 d, read-out: Foxtail, Giant plant response rating
# [29] = 0 to 100 scale, 0 is no effect, 100 is complete control, read-out: Kochia plant response rating
# [30] = 0 to 100 scale, 0 is no effect, 100 is complete control, read-out: Barnyardgrass plant response rating
# [31] = 0 to 100 scale, 0 is no effect, 100 is complete control, read-out: Foxtail, Giant plant response rating
SMILES,pest or weed control at 250 g/ha (rice (Oryra sativa)),pest or weed control at 250 g/ha [1],pest or weed control at 250 g/ha [2],pest or weed control at 250 g/ha [3],"pest or weed control at 500 g/ha [4, 14]","pest or weed control at 500 g/ha [5, 15]","pest or weed control at 500 g/ha [6, 16]",pest or weed control at 500 g/ha (Kochia (Kochia scoparia) [7]; [17]),"pest or weed control at 500 g/ha [8, 18]","pest or weed control at 500 g/ha [9, 19]",pest or weed control at 125 g/ha [10],pest or weed control at 125 g/ha (Kochia (Kochia scoparia) [11]; [20]),"pest or weed control at 125 g/ha [12, 21]","pest or weed control at 125 g/ha [13, 22]","pest or weed control at 125 g/ha [4, 23]","pest or weed control at 125 g/ha [5, 24]","pest or weed control at 125 g/ha [6, 25]",pest or weed control at 125 g/ha (Kochia (Kochia scoparia) [7]; [26]),"pest or weed control at 125 g/ha [8, 27]","pest or weed control at 125 g/ha [9, 28]",also measured
O=C1NC[C@H](c2ccc3c(c2)CCC3)[C@H]1C(=O)Nc1cccc(F)c1F [Compound 1046],0%,100%,0%,60%,60%,0%,70%,70%,90%,90%,0%,0%,90%,60%,–,–,–,–,–,–,"pest or weed control at 125 g/ha ([4]; Preemergence, visual injury rating after approximately 10 d, read-out: Ryegrass, Italian plant response rating (0 to 100 scale, 0 is no effect, 100 is complete control)): 60%; pest or weed control at 125 g/ha ([5]; Preemergence, visual injury rating after approximately 10 d, read-out: Pigweed plant response rating (0 to 100 scale, 0 is no effect, 100 is complete control)): 0%; pest or weed control at 125 g/ha ([6]; Preemergence, visual injury rating after approximately 10 d, read-out: Ragweed plant response rating (0 to 100 scale, 0 is no effect, 100 is complete control)): 40%; pest or weed control at 125 g/ha (Kochia (Kochia scoparia) [7]; Preemergence, visual injury rating after approximately 10 d, read-out: Kochia plant response rating (0 to 100 scale, 0 is no effect, 100 is complete control)): 60%; pest or weed control at 125 g/ha ([8]; Preemergence, visual injury rating after approximately 10 d, read-out: Barnyardgrass plant response rating (0 to 100 scale, 0 is no effect, 100 is complete control)): 90%; pest or weed control at 125 g/ha ([9]; Preemergence, visual injury rating after approximately 10 d, read-out: Foxtail, Giant plant response rating (0 to 100 scale, 0 is no effect, 100 is complete control)): 80%; pest or weed control at 500 g/ha (Kochia (Kochia scoparia) [11]; visual injury, 0 to 100 scale (0 no effect, 100 complete control), approx. 10 d, read-out: Plant response rating, Kochia): 0%; pest or weed control at 500 g/ha ([12]; visual injury, 0 to 100 scale (0 no effect, 100 complete control), approx. 10 d, read-out: Plant response rating, Barnyardgrass): 90%; pest or weed control at 500 g/ha ([13]; visual injury, 0 to 100 scale (0 no effect, 100 complete control), approx. 10 d, read-out: Plant response rating, Foxtail, Giant): 90%"
CN1C[C@H](c2cc(F)cc(F)c2)[C@@H](C(=O)Nc2ccncc2F)C1=O [Compound 1095],0%,50%,0%,0%,0%,30%,0%,0%,60%,90%,0%,0%,0%,0%,0%,0%,0%,0%,0%,0%,"pest or weed control at 500 g/ha [10]: 0%; pest or weed control at 500 g/ha (Kochia (Kochia scoparia) [11]; [29]): 0%; pest or weed control at 500 g/ha [12, 30]: 0%; pest or weed control at 500 g/ha [13, 31]: 0%"
CN1C[C@H](c2cc(F)cc(F)c2)[C@@H](C(=O)Nc2cnccc2Cl)C1=O [Compound 1096],0%,65%,0%,0%,0%,0%,0%,0%,0%,0%,0%,0%,0%,0%,0%,0%,0%,0%,0%,0%,"pest or weed control at 500 g/ha [10]: 0%; pest or weed control at 500 g/ha (Kochia (Kochia scoparia) [11]; [29]): 0%; pest or weed control at 500 g/ha [12, 30]: 0%; pest or weed control at 500 g/ha [13, 31]: 0%"
Cc1cc([C@H]2CN(C)C(=O)[C@@H]2C(=O)Nc2ccc(F)cc2F)ccc1Br [Compound 1100],0%,75%,0%,0%,30%,0%,0%,60%,90%,90%,0%,0%,60%,70%,0%,0%,0%,50%,90%,90%,"pest or weed control at 500 g/ha [10]: 0%; pest or weed control at 500 g/ha (Kochia (Kochia scoparia) [11]; [29]): 20%; pest or weed control at 500 g/ha [12, 30]: 70%; pest or weed control at 500 g/ha [13, 31]: 70%"
